Results taken from patent US11712466B2, “Vaccine composition” (TOHOKU UNIVERSITY, priority 2017, dated 2023).
“Also recorded” adds a separate entry of the source. Ends that are not written are not given here.

Legend:
[1] = system: recombinant human VASH2 protein; test: Antibody titer in blood of immunized mice by ELISA against recombinant VASH2 protein; format: in vivo, mouse; conditions: for production of an antibody specific to VASH2: Example 5: C57BL/6J mice
Excerpt: C57BL/6J male mice aged 8 weeks were purchased from Charles River Laboratories Japan, Inc. After the delivery, the mice were reared in an environment where the room temperature and the light and dark cycles were maintained, and were provided with feed and water ad libitum. As a candidate sequence leading to activation of helper T cells by MHC class II, two peptide sequences: MTGSAADTHR (SEQ ID NO: 4; hereinafter, a peptide composed of the amino acid sequence is referred to as “MTG peptide”) and RRRQASPPRR (SEQ ID NO: 5; hereinafter, a peptide composed of the amino acid sequence is referred to as “RRR peptide”), each of which is not common to VASH1 in the VASH2 sequence were selected (FIG. 1). With respect to these peptides, peptide vaccines using KLH as a carrier were constructed. Note that for the conjugation of each peptide with KLH, a glutaraldehyde method was used. When the amount of the peptide introduced into KLH was measured for each of the obtained peptide vaccines, the amount of MTG was 66 to 70 nmol/mg of the conjugate, and the amount of RRR was 62 to 76 nmol/mg of the conjugate. Subsequently, 5 μg of KLH (control) and 20 μg of each of the KLH-antigen complexes were prepared with physiological saline so that the total amount was 50 μL, respectively, whereby KLH-mixed solutions were obtained. To each of the KLH-mixed solutions (50 μL), an equal amount of complete Freund's adjuvant was added. The obtained mixture was subcutaneously administered to the mice, whereby initial immunization was carried out. After 2 weeks from the administration, booster immunization was carried out by subcutaneously administering a mixture of each of the KLH-mixed solutions (50 μL) and an equal amount of incomplete Freund's adjuvant to the mice. Further, after 2 weeks from the booster immunization (after a total of 4 weeks), an increase in the antibody titer in the blood of each of the immunized mice was verified by ELISA.
The measurement of the antibody titer by ELISA was carried out as follows. After 2 weeks from the booster immunization (after a total of 4 weeks), the blood was collected from the facial vein of each of the immunized mice, and the serum separated from the blood was subjected to ELISA. By using 50 mM carbonate buffer, peptide-conjugated BSA was prepared at 10 μg/mL, and further a recombinant VASH2 protein was prepared at 1 μg/mL, each of which was added at 50 μL/well, and the resultant was left to stand overnight at 4° C. After the solution in each well was removed, 5% skim milk was added at 150 μL/well. After the resultant was left to stand at room temperature for 2 hours, the solution was removed, and subsequently, a serum sample diluted by 20 to 62500 times with 5% skim milk was added at 50 μL/well, and the resultant was left to stand overnight at 4° C. Subsequently, washing was carried out with PBS (200 μL/well×6 times), and thereafter, a secondary antibody (HRP-conjugated anti-Mouse IgG) diluted by 1000 times with 5% skim milk was added at 50 μL/well. After the resultant was left to stand at room temperature for 3 hours, washing was carried out with PBS (200 μL/well×3 times). Thereafter, tetramethylbenzidine (TMB) was added at 50 μL/well, and the resultant was left to stand at room temperature under light shielding. After 30 minutes, the reaction was stopped by adding 0.5 N H2SO4 at 50 μL/well, and an absorbance (450 nm) was measured using a microplate reader.

mZeb1 = test: Gene expression in excised tumor tissue by real-time PCR, mZeb1; format: in vivo, mouse; conditions: tumor excised two weeks after implantation
Protocol: The mouse implanted with the tumor cells in Example 2 was sacrificed two weeks after implantation of the tumor cells, and a tumor was excised from the right axillary subcutaneous region. By using RNeasy Plus Kit (Qiagen, Inc.), extraction of the total RNA from the excised tumor and purification thereof were carried out. By using the obtained total RNA as a template, cDNA was synthesized by reverse transcription reaction. The cDNA was analyzed by performing real-time PCR using a mixed solution of the obtained cDNA and SYBR green (TAKARA BIO, Inc.).

Lewis lung cancer cells = test: In vitro wound migration method with serum of immunized mouse (LLC); format: cell-based; conditions: 1% serum of mouse with increased anti-VASH2 titer after vaccine; 24 and 48 hours
Protocol: By using the serum derived from a mouse in which an increase in the antibody titer against the recombinant human VASH2 protein by administration of the MTG peptide vaccine was confirmed, the effect on the migration ability of various types of cancer cells was examined by an in vitro wound migration method. Mouse-derived Lewis lung cancer cells and human-derived RH30 rhabdomyosarcoma cells were added to a 6-well plate at 1.0×10^6 cells each. After 24 hours, a formed cell monolayer was wounded and linearly exfoliated. After the exfoliation, the medium was replaced with fresh 0.5% FBS+RPMI medium supplemented with 1% mouse serum. At 24 hours and 48 hours after the medium replacement, the image of the cell monolayer was captured using an IX71 inverted microscope (manufactured by Olympus Corporation), and a cell migration distance of each time zone was analyzed using ImageJ software. The analysis was carried out according to the following formula. Cell migration distance (%)={(A−B)/A}×100
A: Width of initial wound, B: Width of wound after 24 hours or 48 hours

KPC mouse = test: Life-extending effect in KPC mouse, spontaneous pancreatic cancer model; format: in vivo; conditions: KPC mice n=8, 100 μg with Alhydrogel every two weeks; all KLH controls (n=7) died before 300 days
Protocol: To a KPC mouse (aged 8 weeks at the initial immunization) that is a spontaneous pancreatic cancer model, 100 μg of the MTG peptide vaccine was administered together with Alhydrogel (registered trademark) every two weeks, and the survival rate thereof was confirmed (n=8). A KPC mouse to which 100 μg of KLH was administered according to the same schedule was used as a control (n=7) (FIG. 13).

K5 cells = test: Tumor growth inhibitory effect, subcutaneous implant model of K5 cells; format: in vivo, mouse
Protocol: 100 μg of KLH (control) or 100 μg of the MTG peptide vaccine was prepared with physiological saline so that the total amount was 100 &L, respectively, whereby KLH-mixed solutions were obtained. To each of the KLH-mixed solutions (100 μL), an equal amount of Alhydrogel (registered trademark) was added. The obtained mixture (200 μL) was intradermally (ID) administered to C57BL/6Jx129SVJ mice aged 8 weeks, whereby initial immunization was carried out (0 day). After 2 weeks from the administration (14 days), booster immunization was carried out. Further, after 2 weeks from the booster immunization (28 days), K5 cells were implanted in each of the mice, whereby a subcutaneous implant model was prepared. In order to confirm that an anti-VASH2 antibody was induced in the mice, the blood was collected at 0 day, 14 day, and 28 day, and the antibody titer was confirmed by ELISA (FIG. 15).

MTG peptide vaccine: MTG peptide MTGSAADTHR (SEQ ID NO: 4) conjugated with KLH as carrier by a glutaraldehyde method (also: conjugated with KLH by glutaraldehyde)
antibody titer against the recombinant human VASH2 protein ([1]; Example 1: C57BL/6J mice, KLH-antigen complex s.c., Freund's adjuvant, serum 2 weeks after booster (total 4 weeks)): a significant increase in the antibody titer was confirmed; also recorded: a significant increase in the antibody titer was observed | production of an antibody specific to VASH2 ([1]; 20 or 100 μg, Alhydrogel adjuvant, day 28): promoted the production of an antibody specific to VASH2 | production of an antibody specific to VASH2 ([1]; 20 or 100 μg, Freund's adjuvant, day 28): promoted the production of an antibody specific to VASH2 | production of an antibody specific to the VASH2 recombinant protein ([1]; Example 6: C57BL/6J mice, 20 or 100 μg, Alhydrogel, day 28): promotes the production of an antibody | induced antibody binding to the VASH2 recombinant protein ([1]; Example 8: C57BL/6Jx129SVJ mice, 100 μg, Alhydrogel, day 28): induced an antibody that binds to both | expression of mZeb1 (epithelial-mesenchymal transition marker) in tumor tissue (mZeb1): dose-dependent expression inhibitory effect; also recorded: significantly inhibited depending on the dose | cell migration, mouse-derived Lewis lung cancer cells (Lewis lung cancer cells): migration inhibitory effect | mice survived over 300 days after birth (KPC mouse): at least 2 mice | tumor size (tumorigenesis), K5 cells, Experiment 1 (K5 cells; C57BL/6Jx129SVJ mice n=2, 100 μg, 14 to 40 days after implantation): significant inhibition of tumorigenesis | tumor size (tumorigenesis), K5 cells, Experiment 2 (K5 cells; C57BL/6Jx129SVJ mice n=11, 100 μg, day 15 after implantation, vs KLH p=0.0002): tumorigenesis was significantly inhibited
